Experimental data taken from patent US20260014167A1, “Treating Amyotrophic Lateral Sclerosis Having Onset 24 Months Prior to Treatment” (Woolsey Pharmaceuticals, Inc., priority 2022, published 2026).
Where two headings read alike, the source gives them in different places.

Key:
[1] = test system: ALS disease onset of between 3 and 36 months; conditions: 30 mg, twice a day, 6-month study; cited from earlier work
human ALS patients = conditions: 30 mg intravenously twice daily over 20 consecutive working days; cited from earlier work
ALS patients [2] = experiment: Fasudil treatment of patients with disease onset at least 24 months prior to treatment; assay type: in vivo, human
Source text: This could not have been predicted from the trials with edaravone, above. […] (Liu 2016). The invention is based on the surprising discovery that orally-administered fasudil can treat ALS patients with disease onset of about two years or more prior treatment. These patients include but are not limited to patients with more advanced disease, but also includes slow-progressing patients.

ALS patients [3] = conditions: patients diagnosed two years or less; cited from earlier work
severe ALS patients = conditions: disease onset of less than three years; cited from earlier work
ALS patients [4] = conditions: enrollment of three years or less; cited from earlier work
[5] = in vivo, 1-hydroxy (M3) metabolite; cited from earlier work

Cl.O=S(=O)(c1cccc2cnccc12)N1CCCNCC1 [Fasudil, Hexahydro-1-(5-isoquinolinesulfonyl)-1H-1,4-diazepine monohydrochloride hemihydrate]
disease modification [1]: did not result in any disease modification
outcome of compassionate use (human ALS patients): no conclusive results beyond safety
benefit from treatment (ALS patients [2]): benefitted

CC1=NN(c2ccccc2)C(=O)C1 [edaravone]
primary endpoint (ALS patients [3]): met the primary endpoint
treatment effect between placebo and edaravone (severe ALS patients): failed to demonstrate any treatment effect
primary endpoint (ALS patients [4]): did not meet the primary endpoint

O=S(=O)(c1cccc2c(O)nccc12)N1CCCNCC1 [M3, hydroxyfasudil]
half-life [5]: about 8 hours
